In the supplement of paper PMC5908809:

What was measured:
[1] = system: normal NK cells expanded with K562-aAPC; assay: percent inhibition of viability; higher = more inhibition; conditions: 72 h, IL-2 2.5 ng/mL
Procedure: (§1)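 Drug sensitivity and resistance testing on K562-aAPC-expanded normal NK cells: 5 concentrations (10-fold steps over a 10,000-fold range), 72 h at 37 °C, viability by CellTiter-Glo normalised to DMSO and benzethonium chloride controls; DSS from the fitted curve.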

DERL-7 (IL-2 2.5 ng/mL) [2] = assay: as above; conditions: 72 h
IMC-1 (IL-2 20 ng/mL) [3] = assay: as above; conditions: 72 h
KAI3 (IL-2 2.5 ng/mL) [4] = assay: as above; conditions: 72 h
KHYG-1 (IL-2 2.5 ng/mL) [5] = assay: as above; conditions: 72 h
NK-92 (IL-2 2.5 ng/mL) [6] = assay: as above; conditions: 72 h
NK-YS (IL-2 2.5 ng/mL) [7] = assay: as above; conditions: 72 h
NKL (IL-2 2.5 ng/mL) [8] = assay: as above; conditions: 72 h
SNK-6 (IL-2 2.5 ng/mL) [9] = assay: as above; conditions: 72 h
YT (IL-2 2.5 ng/mL) [10] = assay: as above; conditions: 72 h
[11] = system: normal primary NK cells, pool 1 (3 donors) (IL-2 2.5 ng/mL); assay: as above; conditions: 72 h
[12] = system: normal primary NK cells, pool 1 (3 donors), resting (IL-2 0 ng/mL); assay: as above; conditions: 72 h
[13] = system: normal primary NK cells, pool 2 (3 donors) (IL-2 2.5 ng/mL); assay: as above; conditions: 72 h
[14] = system: normal primary NK cells, pool 3 (3 donors) (IL-2 2.5 ng/mL); assay: as above; conditions: 72 h
[15] = system: normal NK cells expanded with K562-aAPC; assay: drug sensitivity score (DSS) (DSS units); higher = more sensitive; extreme values may be limits of the assay; conditions: 72 h; IL-2 2.5 ng/mL
Procedure: as §1

DERL-7 (IL-2 2.5 ng/mL) [16] = assay: as above; conditions: 72 h
IMC-1 (IL-2 20 ng/mL) [17] = assay: as above; conditions: 72 h
KAI3 (IL-2 2.5 ng/mL) [18] = assay: as above; conditions: 72 h
KHYG-1 (IL-2 2.5 ng/mL) [19] = assay: as above; conditions: 72 h
NK-92 (IL-2 2.5 ng/mL) [20] = assay: as above; conditions: 72 h
NK-YS (IL-2 2.5 ng/mL) [21] = assay: as above; conditions: 72 h
NKL (IL-2 2.5 ng/mL) [22] = assay: as above; conditions: 72 h
SNK-6 (IL-2 2.5 ng/mL) [23] = assay: as above; conditions: 72 h
YT (IL-2 2.5 ng/mL) [24] = assay: as above; conditions: 72 h
[25] = system: normal primary NK cells, pool 1 (3 donors) (IL-2 2.5 ng/mL); assay: as above; conditions: 72 h
[26] = system: normal primary NK cells, pool 1 (3 donors), resting (IL-2 0 ng/mL); assay: as above; conditions: 72 h
[27] = system: normal primary NK cells, pool 2 (3 donors) (IL-2 2.5 ng/mL); assay: as above; conditions: 72 h
[28] = system: normal primary NK cells, pool 3 (3 donors) (IL-2 2.5 ng/mL); assay: as above; conditions: 72 h

COc1cc2c(NC3CCN(C(C)C)CC3)nc(C3CCCCC3)nc2cc1OCCCN1CCCC1 [UNC0638] (max concentration tested 10000 nM)
percent inhibition of viability [%]
Conditions	1 nM	10 nM	100 nM	1000 nM	10000 nM
DERL-7 (IL-2 2.5 ng/mL) [2]	2.53	3.85	-3.65	12.8	101
IMC-1 (IL-2 20 ng/mL) [3]	-2.5	-1.52	2.54	4.7	100
KAI3 (IL-2 2.5 ng/mL) [4]	-1.49	2.96	15.3	64.9	107
KHYG-1 (IL-2 2.5 ng/mL) [5]	3.45	-2.32	4.32	6.75	102
NK-92 (IL-2 2.5 ng/mL) [6]	5.67	5.27	21.5	21.4	104
NK-YS (IL-2 2.5 ng/mL) [7]	-0.95	-0.93	1.21	6.18	103
NKL (IL-2 2.5 ng/mL) [8]	-8.37	-2.53	-3.47	10	103
SNK-6 (IL-2 2.5 ng/mL) [9]	-6.73	-2.24	11.7	23.5	101
YT (IL-2 2.5 ng/mL) [10]	-0.28	-1.09	4.71	0.39	102
[1]	-0.44	0.89	0.9	3.67	100
[11]	4.83	-1.29	1.24	-5.62	100
[12]	7.27	-7.21	-5.23	10.6	100
[13]	-8.36	-2.48	-3.63	1.06	100
[14]	-4.55	-0.2	2.47	-3.99	100

Conditions	drug sensitivity score
DERL-7 (IL-2 2.5 ng/mL) [16]	7.69
IMC-1 (IL-2 20 ng/mL) [17]	6.26
KAI3 (IL-2 2.5 ng/mL) [18]	14.4
KHYG-1 (IL-2 2.5 ng/mL) [19]	6.72
NK-92 (IL-2 2.5 ng/mL) [20]	8.98
NK-YS (IL-2 2.5 ng/mL) [21]	6.67
NKL (IL-2 2.5 ng/mL) [22]	7.29
SNK-6 (IL-2 2.5 ng/mL) [23]	9.2
YT (IL-2 2.5 ng/mL) [24]	5.79
[15]	6.1
[25]	5.15
[26]	7.28
[27]	5.75
[28]	5.3
